In US11981701B2, “PRMT5 inhibitors” (Merck Sharp & Dohme LLC, priority 2018, dated 2024):
Counter-ions that a name gives are not always drawn. Like-named read-outs stand apart in the source and are kept apart here.

Key:
PRMT5 = target: T1, PRMT5 (Homo sapiens, UniProt O14744); assay: PRMT5 Cell Target Engagement (TE) Assay; assay type: cell-based; details: MCF-7 cells, treated for 3 days, symmetrically dimethylated (SDMA) nuclear proteins by high content imaging; top concentration 10000 nM
T1 construct: seeded with 4000 MCF-7 cells; endogenous in cells; host or cells: MCF-7 cells
Description: The PRMT5 TE assay is a biomarker assay for identifying compounds that inhibit symmetric dimethylation of arginine (SDMA) of PRMT5 substrates. The following substrates have been reported for PRMT5: histone H2A and H4 R3, Histone H3 R2, Histone H3 R8, spliceosome Sm proteins, ribosomal protein RPS10, p53, FEN1, nucleoplasmin, nucleolin, EGFR and EBNA. The assay will focus on detecting symmetrically dimethylated nuclear proteins using high content imaging technology. Detection of the expression of symmetrically dimethylated nuclear proteins is through a mixture of primary rabbit monoclonal antibodies to SDMA (CST 13222), which in turn recognized by an Alexafluor 488 dye-conjugated anti-rabbit IgG secondary antibody. The IN Cell Analyzer 2200 or Opera-Phenix measures nuclear Alexafluor 488 fluorescent dye intensity that is directly related to the level of expression of symmetrically dimethylated nuclear proteins at the single cell level. Nuclear AF488 dye intensities are compared to the mean value for DMSO treated cells (MIN) to report percent of inhibition for each compound-treated well. In this assay, the cell potency (EC50) of each compound was determined from a ten point (1:3 serial dilution; top compound concentration of 10000 nM) titration curve using the following outlined procedure. Each well of a BD falcon collagen coated black/clear bottom 384-well plate was seeded with 4000 MCF-7 cells in 30 μl media and allowed to attach for 5 h. Media is ATCC-formulated Eagle's Minimum Essential Medium, Catalog No. 30-2003. To make the complete growth medium, add the following components to the base medium: 0.01 mg/ml human recombinant insulin; fetal bovine serum to a final concentration of 10%. Additional 30 μl of media containing 2× compounds were added to each well. Cells were treated for 3 days in 37° C. CO2 incubator. On day 3, cells were fixed with Cytofix, permeabilized with 0.4% Triton-X-100/Cytofix, and washed with D-PBS without Ca/Mg. Cells were blocked with Licor Odessey blocking reagent for 1 h at room temperature, followed by incubation with anti-SDMA (1:1000) antibody at 4° C. overnight. 1° antibody was removed, followed by three washings with DPBS without Ca/Mg and 0.05% Tween20. Hoechst (5 μg/ml), Cell Mask deep stain (1:2000) and Alexa488-conjugated goat anti-rabbit IgG (2 μg/mL) was added for 1 hour at room temperature. A final washing step (three washes) was performed before sealing plate for imaging on In Cell Analyzer 2200 or Opera-Phenix. Images from analyzer were uploaded to Columbus (at WP or BOS) for image analysis. IC50 values were determined by 4 parameters robust fit of percent fluorescence units vs. (Log10) compound concentrations.

[1] = target: T2, Full-length (FL)-PRMT5-MEP50 enzyme complex (Homo sapiens, UniProt O14744); assay: PRMT5-MEP50 Enzyme Methylation Assay; assay type: biochemical; details: 1.0 nM PRMT5-MEP50, 75 nM biotinylated H4R3(Me1) peptide, 15 μM SAM, 60 min pre-incubation, 150 min at 37° C.
T2 construct: 1.25 nM of Full-length (FL)-PRMT5-MEP50 enzyme complex; made in house; host or cells: baculovirus-transfected Sf21 cells
Procedure: PRMT5/MEP50 biochemical assay is a direct measurement of the methylation activity of the enzyme complex on a short peptide substrate derived from the N-terminus of H4 histone. Methylation experiment is performed with recombinant protein. The assessment of inhibitory effect (IC50) of small molecules is measured by the effectiveness of the compounds to inhibit this reaction.
In this assay, the potency (IC50) of each compound was determined from a twenty-point (1:2 serial dilution; top compound concentration of 100000 nM) titration curve using the following outlined procedure. To each well of a white ProxiPlus 384 well-plate, 100 nL of compound (1% DMSO in final assay volume of 10 μL) was dispensed, followed by the addition of 8 μL of 1× assay buffer (50 mM Bicine pH 8.0, 1 mM DTT, 0.004% Tween20, 0.01% BSA) containing 1.25 nM of Full-length (FL)-PRMT5-MEP50 enzyme complex (recombinant proteins from baculovirus-transfected Sf21 cells: FL-PRMT5; MW=[…] and FL-MEP50; MW=38614) and 1 μL of 150 μM S-(5′-Adenosyl)-L-Methionine Chloride (SAM). Plates were sealed and placed in a 37° C. humidified chamber for a 60 min pre-incubation with compound. Subsequently, each reaction was initiated by the addition of 1 μL 1× assay buffer containing 750 nM biotinylated H4R3(Me1) peptide. The final reaction in each well of 10 μL consists of 1.0 nM PRMT5-MEP50, 75 nM biotinylated-peptide, and 15 μM SAM. Methylation reactions were allowed to proceed for 150 min in a sealed plate at 37° C. Reactions were immediately quenched by the addition of 1 μL of 5% formic acid. Plates were then frozen and shipped to SAMDI™ Tech Inc. to determine the percent conversion from H4R3(Me1) to H4R3(Me2). IC50 values were determined by a 7 parameter biphasic fit model plotting the percent Effect (based on product conversion) vs. (Log10) compound concentrations.

[2] = first value of 7 parameter biphasic fit, read-out: Enzyme Methylation Assay EC50_1
[3] = second value of 7 parameter biphasic fit, read-out: Enzyme Methylation Assay EC50_2

T2 sequence (O14744 whole entry): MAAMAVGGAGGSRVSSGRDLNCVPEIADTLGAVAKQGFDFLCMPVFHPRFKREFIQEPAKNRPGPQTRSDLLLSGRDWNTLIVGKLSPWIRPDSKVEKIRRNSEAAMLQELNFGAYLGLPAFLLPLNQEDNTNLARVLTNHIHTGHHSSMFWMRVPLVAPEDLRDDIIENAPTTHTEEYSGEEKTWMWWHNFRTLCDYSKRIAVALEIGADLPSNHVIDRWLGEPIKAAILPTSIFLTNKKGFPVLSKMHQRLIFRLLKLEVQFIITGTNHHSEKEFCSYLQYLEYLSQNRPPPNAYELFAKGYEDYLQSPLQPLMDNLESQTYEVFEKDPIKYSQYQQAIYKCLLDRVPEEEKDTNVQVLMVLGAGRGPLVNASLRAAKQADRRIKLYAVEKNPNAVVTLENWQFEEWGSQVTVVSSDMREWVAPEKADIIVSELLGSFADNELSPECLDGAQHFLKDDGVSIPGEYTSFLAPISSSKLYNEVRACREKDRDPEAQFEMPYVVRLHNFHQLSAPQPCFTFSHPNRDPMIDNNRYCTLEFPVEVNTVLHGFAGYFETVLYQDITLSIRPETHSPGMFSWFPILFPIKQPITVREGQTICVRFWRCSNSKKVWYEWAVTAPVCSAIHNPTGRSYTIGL
T2 sequence (Q9BQA1 whole entry partner): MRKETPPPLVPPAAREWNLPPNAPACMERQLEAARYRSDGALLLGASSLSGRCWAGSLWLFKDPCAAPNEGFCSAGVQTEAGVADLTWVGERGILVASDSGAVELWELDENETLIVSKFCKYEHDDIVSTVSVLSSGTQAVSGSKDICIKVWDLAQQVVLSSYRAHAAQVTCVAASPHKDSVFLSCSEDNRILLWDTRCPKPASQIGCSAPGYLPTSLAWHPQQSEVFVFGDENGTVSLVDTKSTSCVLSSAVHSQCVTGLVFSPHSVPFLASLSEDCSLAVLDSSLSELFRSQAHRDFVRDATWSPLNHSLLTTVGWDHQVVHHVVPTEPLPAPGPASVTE
T1 sequence (O14744 whole entry): as the sequence (O14744 whole entry) above
T1 sequence (Q9BQA1 whole entry partner): as the sequence (Q9BQA1 whole entry partner) above

SMILES | EC50 (PRMT5) [nM] | EC50 [1, 2] [nM] | EC50 [1, 3] [nM]
Cc1ccn([C@@H]2C[C@H](CCc3ccc4ccc(NCC(F)F)nc4c3)[C@@H](O)[C@H]2O)c2ncnc1-2 [Example 8, (1S,2R,3S,5R)-3-(2-{2-[(2,2-difluoroethyl)amino]-7-quinolinyl}ethyl)-5-(7-methyl-4H-imidazo[4,5-b]pyridin-4-yl)-1,2-cyclopentanediol] | 1.94 | 0.253 | 
Cc1ccn([C@@H]2C[C@H](CCc3ccc4cc(Br)c(N)nc4c3)[C@@H](O)[C@H]2O)c2ncnc1-2 [Example 5, (1S,2R,3S,5R)-3-[2-(2-amino-3-bromo-7-quinolinyl)ethyl]-5-(7-methyl-4H-imidazo[4,5-b]pyridin-4-yl)-1,2-cyclopentanediol] | 0.508 | 0.32 | 
Nc1nc2cc(OC[C@H]3O[C@@H](n4nc5ncnc-5c(N)n4)[C@H](O)[C@@H]3O)ccc2cc1Br [Example 3, 2-[5-O-(2-amino-3-bromo-7-quinolinyl)-b-D-ribofuranosyl]-2H-imidazo[4,5-d][1,2,3]triazin-4-amine trifluoroacetate] | > 10000 | 1620 | 
Nc1ccn([C@@H]2C[C@H](CCc3ccc4ccc(NCC(F)F)nc4c3)[C@@H](O)[C@H]2O)c2ncnc1-2 [Example 7, (1R,2S,3R,5S)-3-(7-amino-4H-imidazo[4,5-b]pyridin-4-yl)-5-(2-{2-[(2,2-difluoroethyl)amino]-7-quinolinyl}ethyl)-1,2-cyclopentanediol] | 16.1 | 0.231 | 
Nc1ccn([C@@H]2C[C@H](CCc3ccc4cc(Br)c(N)nc4c3)[C@@H](O)[C@H]2O)c2ncnc1-2 [Example 4, (1S,2R,3S,5R)-3-[2-(2-amino-3-bromo-7-quinolinyl)ethyl]-5-(7-amino-4H-imidazo[4,5-b]pyridin-4-yl)-1,2-cyclopentanediol] | 2.54 | 0.489 | 
Nc1nc2cc(OC[C@H]3O[C@@H](n4cnc(N)c5ncnc4-5)[C@H](O)[C@@H]3O)ccc2cc1Br [Example 1, 3-[5-O-(2-amino-3-bromo-7-quinolinyl)-b-D-ribofuranosyl]-3H-purin-6-amine] | 60.6 | 1.37 | 85.1
Nc1nc2cc(CC[C@H]3C[C@@H](n4cnc(N)c5ncnc4-5)[C@H](O)[C@@H]3O)ccc2cc1Br [Example 6, (1S,2R,3S,5R)-3-[2-(2-amino-3-bromo-7-quinolinyl)ethyl]-5-(6-amino-3H-purin-3-yl)-1,2-cyclopentanediol hydrochloride] | 1.69 | 0.264 | 
Nc1ccn([C@@H]2O[C@H](COc3ccc4cc(Br)c(N)nc4c3)[C@@H](O)[C@H]2O)c2ncnc1-2 [Example 2, 4-[5-O-(2-amino-3-bromo-7-quinolinyl)-b-D-ribofuranosyl]-4H-imidazo[4,5-b]pyridin-7-amine] | 19.2 | 0.662 | 18.3

Continued, values first:

EC50 (PRMT5) [nM] | EC50 [1, 2] [nM] | EC50 [1, 3] [nM] | SMILES
61.5 | 0.404 |  | Cc1ccn([C@@H]2C[C@H](COc3ccc4cc(Br)c(N)nc4c3)[C@@H](O)[C@H]2O)c2ncnc1-2 [Example 13, (1S,2R,3R,5R)-3-(((2-amino-3-bromoquinolin-7-yl)oxy)methyl)-5-(7-methyl-4H-imidazo[4,5-b]pyridin-4-yl)cyclopentane-1,2-diol]
30.2 | 0.96 |  | CCc1cc2ncnc-2n([C@@H]2C[C@H](CCc3ccc4cc(Br)c(N)nc4c3)[C@@H](O)[C@H]2O)c1 [Example 11, (1S,2R,3S,5R)-3-[2-(2-amino-3-bromo-7-quinolinyl)ethyl]-5-(6-ethyl-4H-imidazo[4,5-b]pyridin-4-yl)-1,2-cyclopentanediol trifluoroacetate]
1.7 | 0.58 |  | Cc1ccn([C@@H]2O[C@H](CCc3ccc4cc(Br)c(N)nc4c3)[C@@H](O)[C@H]2O)c2ncnc1-2 [Example 12, (2R,3S,4R,5R)-2-(2-(2-amino-3-bromoquinolin-7-yl)ethyl)-5-(7-methyl-4H-imidazo [4,5-b]pyridin-4-yl)tetrahydrofuran-3,4-diol]
1.05 | 0.282 |  | Cc1ncn([C@@H]2C[C@H](CCc3ccc4cc(Br)c(N)nc4c3)[C@@H](O)[C@H]2O)c2ncnc1-2 [Example 9, (1S,2R,3S,5R)-3-[2-(2-amino-3-bromo-7-quinolinyl)ethyl]-5-(6-methyl-3H-purin-3-yl)-1,2-cyclopentanediol]
116 | 1.62 |  | Cc1cc2ncnc-2n([C@@H]2C[C@H](CCc3ccc4cc(Br)c(N)nc4c3)[C@@H](O)[C@H]2O)c1 [Example 10, (1S,2R,3S,5R)-3-[2-(2-amino-3-bromo-7-quinolinyl)ethyl]-5-(6-methyl-4H-imidazo[4,5-b]pyridin-4-yl)-1,2-cyclopentanediol trifluoroacetate]
